Data as given in patent US20040186170A1, “Benzofuran derivatives, pharmaceutical composition containing the same, and a process for the preparation of the active ingredient” (EGIS GYOGYSZERGYAR, priority 1998, published 2004).
Counter-ions that a name gives are not always drawn. Like-named read-outs stand apart in the source and are kept apart here.

Key:
[1] = tested on: isolated perfused rat heart; experiment: TTC prolonging effect in isolated Langendorff rat hearts (global ischemia)
Method: Measurement of the cardioprotective effect in ischemic rat heart (Langendorff) preparation
The time lapsed after starting global ischemia until the beginning of contracture (i.e. time to contracture=TTC) is prolonged by several cardioprotective compounds, thus, the effectiveness of the compounds can be examined by measuring TTC.
Male Sprague-Dawley rats weighing 300 to 350 g were injected with 2500 IU (0.5 ml) of heparin i.p. and 10 minutes later the animals were anaesthetized with sodium pentobarbital/5-ethyl-5-(1-methylbutyl)-2,4,6(1H,3H,5H)-pyrimidinetrione sodium salt/ in a dose of 60 mg/kg i.p. The heart was quickly excised, and the aorta was connected to a cannula fixed to a Langendorff apparatus. The heart was perfused at a constant pressure (8000 Pa) with a modified carbogenized Krebs-Henseleit solution. The composition of the solution was the following (in mM): NaCl 118, KCl 4.7, MgSO4 1.6, CaCl2 2.5, NaHCO3 24.88, KH2PO4 1.18, EDTA 0.5, glucose 11. Partial CO2 pressure and pH of the solution were maintained within the physiological limits (pCO2 4000-4650 Pa, pH=7.3-7.45).
A hole was cut in the wall of the left atrium and a water-filled plastic balloon attached to a metal cannula was inserted into the left ventricle. End diastolic pressure of the left ventricle was set to a value between 666-1333 Pa during the equilibration period by changing the volume of the liquid in the balloon, however, later it was not modified.
After a 20 minutes' equilibration period, the hearts were perfused for 10 minutes with the vehicle (0.04% of dimethyl sulfoxide), in case of the control group, or with a solution of the test substance at 10^−6 or 10^−5 M concentration, in case of the treated groups. The activity of the test compound was not examined further when, at the end of the 10 minutes' period, the systolic pressure of the left ventricle was reduced by more than 20%, compared to the control value determined before the treatment.
Global ischemia was initiated by completely shutting off the perfusate flow and carbogenization for 25 minutes. The time period from the beginning of ischemia until the formation of myocardial contracture i.e. an increase of 666 Pa in left ventricular end diastolic pressure (TTC) was measured.
3 parallel experiments were performed with the test compounds at each concentration and parameters of 3 additional vehicle (0.04% dimethyl sulfoxide) treated hearts were measured along with the test substance.
Individual TTC values were averaged, and the effect of the test substances was expressed as a percentage change compared to the vehicle treated group. […] As a reference substance, lemakalim i.e. (3S)-trans-3,4-dihydro-3-hydroxy-2,2-dimethyl-4-(2-oxo-1-pyrrolidinyl)-2H-1-benzpyrane-6-carbonitrile was used.

[2] = tested on: Male Wistar rats; experiment: Anxiolytic effect, Vogel's conflict test; settings: half an hour before the examination, tolerated number of electric shocks
Method: Determination of the Anxiolytic Effect on the Basis of Vogel's Conflict Test
The anxiolytic effect was examined by the method of Vogel et al./Vogel, J. R., Beer, B., Clody, D. E., Psychopharmacologia (Berl.), 21, 1 (1971)/. Male Wistar rats weighing 180 to 200 g were left to be thirsty for 48 hours and starved for 24 hours before the test. The substances to be examined and the carriers, respectively, were administered to the animals half an hour before the examination. In the test chamber, the rats were allowed to drink from the drinking tube protruding into the chamber. Following every 20th lick, the apparatus emitted an electric shock of 0.7 mA through the drinking tube. During the test lasting for 5 minutes, the number of those electric shocks was registered which the animals accepted in order to quench their thirst. The effect of the compounds was expressed as the increase of the tolerated number of electric shocks in percentage.
Meprobamate/2-methyl-2-propyltri-methylenecarbamate/ was used as the reference substance.

[3] = molecular target: T1, 5-HT1A receptor (Rattus norvegicus, UniProt P19327); experiment: 5-HT1A receptor binding assay
T1 sequence (P19327 1-422): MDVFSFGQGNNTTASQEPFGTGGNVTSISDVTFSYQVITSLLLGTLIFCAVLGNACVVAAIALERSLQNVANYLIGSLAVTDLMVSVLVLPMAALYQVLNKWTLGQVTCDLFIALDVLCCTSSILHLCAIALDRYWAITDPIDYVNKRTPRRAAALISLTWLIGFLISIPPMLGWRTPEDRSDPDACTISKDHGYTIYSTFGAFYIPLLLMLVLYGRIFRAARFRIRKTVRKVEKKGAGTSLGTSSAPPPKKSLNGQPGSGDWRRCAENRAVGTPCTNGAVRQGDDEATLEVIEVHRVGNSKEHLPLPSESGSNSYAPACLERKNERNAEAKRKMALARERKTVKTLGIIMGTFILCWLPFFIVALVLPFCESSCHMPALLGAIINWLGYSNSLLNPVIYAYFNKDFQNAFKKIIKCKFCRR

[4] = tested on: Male Sprague-Dawley rats; experiment: Elevated plus-maze test on rats; assay type: in vivo, rat; settings: for MED (in mg/kg) p.o.: 60 minutes prior to the test, based on the time spent in the open arms
Method: Elevated Plus-Maze Test on Rats
The test was carried out according to a modified method of Pelow et al./J. Neurosci. Methods, 14, 149 (1985)/. The elevated plus-maze consists of two open and two 40 cm wall enclosed arms of the same size (50×15 cm) arranged in the shape of a cross. The arms of the same type are opposite to each other. The junction of the four arms forms a central square area (15×15 cm). The apparatus is made of a wooden material elevated to a height of 50 cm and illuminated by a dim light from above. Male Sprague-Dawley rats weighing 220 to 260 g were used for the experiment.
The rats were treated with the test or reference compounds 60 minutes prior to the test. The animals were then placed onto a central square area and were subjected to the test for 5 minutes. The following 4 different parameters were determined:
time spent in the open arms;
time spent in the closed arms;
number of entries into the open arms;
number of entries into the closed arms.
A compound was considered to be effective where significant increase was found either in the time spent in the open arms (in sec) or in the number of entries into the open arms when compared to the control animals (in percentage). Minimum effective doses (MED) were determined based on the time spent in the open arms for each compound examined. Buspirone was used as the reference material.

[5] = 10^−5 M, time to contracture, change compared to the vehicle treated group
[6] = 10^−6 M, time to contracture, change compared to the vehicle treated group

| SMILES | TTC change (in %) at 10^−5 M [1, 5] | TTC change (in %) at 10^−6 M [1, 6] | TTC change (in %) at 10^−6 M [1] | Ki [3] | also measured |
| --- | --- | --- | --- | --- | --- |
| COc1ccc(N2CCN(CC(O)COc3cccc4c3OC(C)(C)C4)CC2)cc1 (stereo not drawn) [Example 68, 1-/3-(2,2-Dimethyl-2,3-dihydrobenzofuran-7-yloxy)-2-hydroxypropyl/-4-(4-methoxyphenyl)-piperazine] | 43% | 0% |  |  | MED in mg/kg ip. [2]: 20 mg/kg |
| COc1ccc(C2(O)CCN(CC(O)COc3cccc4c3OC(C)(C)C4)CC2)cc1 (stereo not drawn) [Example 26, 1-/3-(2,2-Dimethyl-2,3-dihydrobenzofuran-7-yloxy)-2-hydroxypropyl/-4-hydroxy-4-(4-methoxyphenyl)-piperidine] |  |  | 43% | 3 nM |  |
| CC1(C)Cc2cccc(OCC(O)CN3CCC(O)(c4ccccc4)CC3)c2O1 (stereo not drawn) [Example 20, 1-/3-(2,2-Dimethyl-2,3-dihydrobenzofuran-7-yloxy)-2-hydroxypropyl/-4-hydroxy-4-phenyl-piperidine hydrochloride] |  |  | 18% | 6 nM | TTC change (in %) at 10^−5 M [1]: 65% |
| CC1(C)Cc2cccc(OCC(O)CN3CCC(C#N)(c4ccccc4)CC3)c2O1.Cl (stereo not drawn) [Example 41, 1-/3-(2,2-Dimethyl-2,3-dihydrobenzofuran-7-yloxy)-2-hydroxypropyl/-4-cyano-4-phenyl-piperidine hydrochloride] |  |  | 32% |  | TTC change (in %) at 10^−5 M [1]: 53% |
| CC1(C)Cc2cccc(OCC(O)CN3CCC(O)(c4ccc(Cl)cc4)CC3)c2O1 (stereo not drawn) [Example 14, 1-/3-(2,2-Dimethyl-2,3-dihydrobenzofuran-7-yloxy)-2-hydroxypropyl/-4-hydroxy-4-(4-chloro-phenyl)piperidine] |  |  |  | 10 nM |  |
| COc1cccc(N2CCN(CC(O)COc3cccc4c3OC(C)(C)C4)CC2)c1.Cl.Cl (stereo not drawn) [Example 76, 1-/3-(2,2-Dimethyl-2,3-dihydrobenzofuran-7-yloxy)-2-hydroxypropyl/-4-(3-methoxyphenyl)-piperazine dihydrochloride] | 80% | 25% |  |  |  |
| CCCC(C)(COC(N)=O)COC(N)=O [meprobamate, 2-methyl-2-propyltri-methylenecarbamate, reference compound] |  |  |  |  | MED in mg/kg ip. [2]: 50 mg/kg |
| CC1(C)Cc2cccc(OCC(O)CN3CCN(c4cccc(F)c4)CC3)c2O1 (stereo not drawn) [Example 66, 1-/3-(2,2-Dimethyl-2,3-dihydrobenzofuran-7-yloxy)-2-hydroxypropyl/-4-(3-fluorophenyl)-piperazine] | 66% | 5% |  |  |  |
| O=C1CC2(CCCC2)CC(=O)N1CCCCN1CCN(c2ncccn2)CC1 [buspirone, reference compound] |  |  |  |  | MED (in mg/kg) p.o. [4]: 3 mg/kg |
| Cc1ccc(C2(O)CCN(CC(O)COc3cccc4c3OC(C)(C)C4)CC2)cc1 (stereo not drawn) [Example 30, 1-/3-(2,2-Dimethyl-2,3-dihydrobenzofuran-7-yloxy)-2-hydroxypropyl/-4-hydroxy-4-(4-methyl-phenyl)piperidine hydrochloride] |  |  |  | 5 nM |  |
| CC1(C)Cc2cccc(OCC(O)CN3CCN(c4ccc(F)cc4)CC3)c2O1 (stereo not drawn) [Example 63, 1-/3-(2,2-Dimethyl-2,3-dihydrobenzofuran-7-yloxy)-2-hydroxypropyl/-4-(4-fluorophenyl)-piperazine] | 111% | −3% |  |  |  |
| COc1cccc(C2(O)CCN(CC(O)COc3cccc4c3OC(C)(C)C4)CC2)c1 (stereo not drawn) [Example 25, 1-/3-(2,2-Dimethyl-2,3-dihydrobenzofuran-7-yloxy)-2-hydroxypropyl/-4-hydroxy-4-(3-methoxyphenyl)-piperidine hydrochloride] |  |  | 2% | 0.7 nM | TTC change (in %) at 10^−5 M [1]: 59%; anxiolytic effect compared with buspirone ([4]; in words): superior by one order of magnitude to buspirone; MED (in mg/kg) p.o. [4]: 0.3 mg/kg |
| CC1(C)Cc2cccc(OCC(O)CN3CCC(O)(c4ccc(F)cc4)CC3)c2O1 (stereo not drawn) [Example 16, 1-/3-(2,2-Dimethyl-2,3-dihydrobenzofuran-7-yloxy)-2-hydroxypropyl/-4-hydroxy-4-(4-fluoro-phenyl)piperidine] |  |  | 5% | 3 nM | TTC change (in %) at 10^−5 M [1]: 78%; MED (in mg/kg) p.o. [4]: 1 mg/kg |
| COc1ccc2cc(C3CCN(CC(O)COc4cccc5c4OC(C)(C)C5)CC3)ccc2c1.Cl (stereo not drawn) [Example 23, 1-/3-(2,2-Dimethyl-2,3-dihydrobenzofuran-7-yloxy)-2-hydroxypropyl/-4-(6-methoxynaphth-2-yl)piperidine hydrochloride] |  |  |  |  | MED (in mg/kg) p.o. [4]: 3 mg/kg |
| CC1(C)Cc2cccc(OCC(O)CN3CCN(c4ccc(Cl)cc4)CC3)c2O1 (stereo not drawn) [Example 73, 1-/3-(2,2-Dimethyl-2,3-dihydrobenzofuran-7-yloxy)-2-hydroxypropyl/-4-(4-chlorophenyl)-piperazine] | 49% | 19% |  |  |  |
| CC1(C)Cc2cccc(OCC(O)CN3CCC(O)(c4cccc(Cl)c4)CC3)c2O1 (stereo not drawn) [Example 24, 1-/3-(2,2-Dimethyl-2,3-dihydrobenzofuran-7-yloxy)-2-hydroxypropyl/-4-hydroxy-4-(3-chloro-phenyl)-piperidine hydrochloride] |  |  | 47% | 12 nM | MED (in mg/kg) p.o. [4]: 3 mg/kg |
| CC1(C)Oc2ccc(C#N)cc2[C@@H](N2CCCC2=O)[C@@H]1O [lemakalim, (3S)-trans-3,4-dihydro-3-hydroxy-2,2-dimethyl-4-(2-oxo-1-pyrrolidinyl)-2H-1-benzpyrane-6-carbonitrile, reference compound] | 55% | 20% |  |  |  |
| CC1(C)Cc2cccc(OCC(O)CN3CCC(O)(c4cccc(C(F)(F)F)c4)CC3)c2O1 (stereo not drawn) [Example 9, 1-/3-(2,2-Dimethyl-2,3-dihydrobenzofuran-7-yloxy)-2-hydroxypropyl/-4-hydroxy-4-(3-tri-fluoromethylphenyl)piperidine hydrochloride] |  |  | 90% | 20 nM | TTC prolongation compared with lemakalim [1]: surpasses remarkably also the effect of lemakalim |
| CC1(C)Cc2cccc(OCC(O)CN3CC=C(c4cccc(C(F)(F)F)c4)CC3)c2O1.Cl (stereo not drawn) [Example 8, 1-/3-(2,2-Dimethyl-2,3-dihydrobenzofuran-7-yloxy)-2-hydroxypropyl/-4-(3-trifluoromethyl-phenyl)-1,2,3,6-tetrahydropyridine hydrochloride] | 90% | 43% |  |  |  |
